What was measured:
[1] = tested on: enzymatic activity in fecal matter; assay: Inhibition of enzymatic activity in fecal matter; format: cell-based; conditions: d9-choline 1 mM, 16 hours at 37° C., anaerobic, d9-TMA by LCMS
Protocol: Inhibition of enzymatic activity in fecal matter was determined by adding a substrate (d9-choline, 1 mM final concentration) and a compound in a range of concentrations in order to determine an IC50. After incubation for a designated 16 hours at 37° C. in anaerobic conditions, samples were be prepared for LCMS analysis, and the amount of d9-TMA produced was determined using LCMS analysis as in the Examples above.

in vivo = assay: in vivo; parameters: species or system Sprague-Dawley rats; conditions: Sprague-Dawley, rat
[2] = Pharmacokinetic study of colon contents and plasma after oral dose of conjugate; format: in vivo, male C57B3L/6 mice; conditions: mouse, in vivo, po
Protocol: To confirm that the active agent component of the conjugate is released in the gastrointestinal tract, a pharmacokinetic study was conducted in male C57B3L/6 mice examining conjugate and active agent of concentrations in both the colon contents and plasma after oral dose of conjugate. Conjugate and active agent of were quantified by LCMS at 0 (pre-dose), 0.25, 0.5, 1, 2, 4, 6, 8, 12, and 24 hours post-dose of compound.

[3] = format: in vitro ADME; conditions: simulated gi fluid, 1 µM, pH 1.6
Protocol: This assay was used to assess the stability of a conjugate in a stomach.
Medium was prepared by dissolving 2 g of sodium chloride in 0.6 L in ultrapure water (MilliQ®, Millipore Sigma, Darmstadt, Germany). The pH was adjusted to 1.6 with 1N hydrochloric acid, and the volume was then adjusted to 1 L with purified water.
60 mg FaSSIF powder (Biorelevant™, London, UK) were dissolved in 500 mL buffer (above). Pepsin was added (0.1 mg/mL) (Millipore Sigma, Darmstadt, Germany), and the solution was stirred. The resulting SGF media were used fresh for each experiment.
Test compounds were dissolved in DMSO stock to 1 mM. An aliquot of the DMSO stock solution was removed and diluted in the SGF Media in 15 mL falcon tubes to generate a total compound concentration of 1 μM. A 1 mL aliquot was immediately removed and diluted once with 1 volume of acetonitrile for T0 timepoint. The mixture was sealed and mixed at 37° C. in an incubator. Aliquots (1 mL) were removed at regular intervals and immediately quenched by the addition of 1 volume of acetonitrile. The resulting samples were analyzed by LCMS to determine degradation rates in SGF.

[4] = format: in vitro ADME; conditions: simulated gi fluid, 1 µM, pH 6.7
Protocol: This assay was used to assess the stability of a conjugate in a small intestine.
Phosphate buffer was prepared by dissolving 0.42 g of sodium hydroxide pellets and 3.95 g of monobasic sodium phosphate monohydrate and 6.19 g of sodium chloride in ultrapure water (MilliQ®, Millipore Sigma, Darmstadt, Germany). The pH was adjusted to 6.7 using aq. HCl and aq. NaOH, as necessary, and the solution was diluted with ultrapure water to produce 1 L of the pH 6.7 buffer.
112 mg FaSSIF powder (Biorelevant™, London, UK) was dissolved in 50 mL of the pH 6.7 buffer. 2 to 3 mL of the resulting solution were then added to 500 mg pancreatin (Millipore Sigma, Darmstadt, Germany). The resulting mixture was agitated by finger tapping the vessel containing the mixture until milky suspension formed. At this time, the remainder of the 50 mL FaSSiF/pH 6.7 buffer solution was added. The resulting suspension was flipped upside down 10 times to produce SIF, which was used fresh.
Test compounds were dissolved in DMSO stock to 1 mM. An aliquot of the DMSO stock solution was removed and diluted in the SIF media in 15 mL falcon tubes to produce a mixture with a tested compound concentration of 1 μM. A 1 mL aliquot was immediately removed and diluted once with 1 volume of acetonitrile for T0 timepoint. The mixture was sealed and agitated at 37° C. in an incubator. Aliquots (1 mL) were removed at regular intervals and immediately quenched by the addition of 1 volume of acetonitrile. The resulting samples were analyzed by LCMS to determine degradation rates.

[5] = format: in vitro ADME; conditions: 1 µM
Protocol: This assay was used to assess the stability of a conjugate in a large intestine.
All experiments were performed in an anaerobic chamber containing 90% nitrogen, 5% hydrogen and 5% carbon dioxide. Colonic material was resuspended as a slurry (15% w/v final concentration) in pre-reduced, anaerobically sterilized dilution blanks (Anaerobe Systems AS-908). The colonic material was then inoculated into 96 well plates containing YCFAC media (Anaerobe Systems AS-680, 6.7 μL slurry into 1 mL total media). A compound was added to each individual well to reach a final analyte concentration of 1 μM, and the material was mixed by pipetting. Each sample was removed after set timepoints (0, 120, 240, 480, 1440, 2880 minutes after initiation of the assay), quenched with acetonitrile containing internal standard, and analyzed by LCMS.

CC(=O)OC[C@H]1O[C@@H](OCC[N+](C)(C)C2CC2)[C@H](OC(C)=O)[C@@H](OC(C)=O)[C@@H]1OC(C)=O.[I-] [Compound 80, N,N-dimethyl-N-(2-{[(3R,4S,5R,6R)-3,4,5-tris(acetyloxy)-6-[(acetyloxy)methyl]oxan-2-yl]oxy}ethyl)cyclopropanaminium Iodide]
IC50 [1]: 380 nM | Cmax (in vivo; iv, 1 mg/kg): 7.68 µM | IV Cmax (in vivo; iv, 1 mg/kg): 0 nM | % F (in vivo; po, 10 mg/kg): 1.5% | bioavailability (in vivo; po, 10 mg/kg): 0.68% | Plasma Cmax [2]: Not | Assay 1- FaSSGF Stability: % Remaining at 1 hr [3]: 145.32% | Assay 2- FaSSIF Stability: % Remaining at 4 hr [4]: 99.34% | Assay 3- Colonic Material Stability Assay % Remaining at 24 hr [5]: 25%
